Target: T1, MIF produced by THP-1 cells (Homo sapiens, UniProt P14174)
T1 construct: a test cell may express the MIF naturally (e.g., THP-1 cells); endogenous in cells; host or cells: THP-1 cells stimulated with LPS
T1 sequence (P14174 2-115 limits assumed): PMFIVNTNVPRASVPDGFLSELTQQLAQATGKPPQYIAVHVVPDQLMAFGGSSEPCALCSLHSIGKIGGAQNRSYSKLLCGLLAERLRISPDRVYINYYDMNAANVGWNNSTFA
Experiment: ELISA of immunoreactive MIF from LPS stimulated THP-1 cells treated with compound
Format: cell-based
Conditions: LPS stimulated THP-1 cells, incubated overnight; read-out: ED50, inhibition of the ability of the antibody to recognize MIF (ELISA)
Method: Alternatively, ELISA may be preferred to detect and quantify the amount of MIF in cell supernatants. ELISA is preferred for detection in high throughput screening. Briefly, 96-well plates are coated with an anti-MIF antibody or anti-tag antibody, washed, and blocked with 2% BSA. Cell supernatant is then added to the wells. Following incubation and washing, a second antibody (e.g., to MIF) is added. The second antibody may be coupled to a label or detecting reagent, such as an enzyme or to biotin. Following further incubation, a developing reagent is added and the amount of MIF determined using an ELISA plate reader. The developing reagent is a substrate for the enzyme coupled to the second antibody (typically an anti-isotype antibody) or for the enzyme coupled to streptavidin. Suitable enzymes are well known in the art and include horseradish peroxidase, which acts upon a substrate (e.g., ABTS) resulting in a colorimetric reaction. It is recognized that rather than using a second antibody coupled to an enzyme, the anti-MIF antibody may be directly coupled to the horseradish peroxidase, or other equivalent detection reagent. If desired, cell supernatants may be concentrated to raise the detection level. Further, detection methods, such as ELISA and the like may be employed to monitor intracellular as well as extracellular levels of MIF. When intracellular levels are desired, a cell lysate is preferred. When extracellular levels are desired, media can be screened.
In another experiment (FIG. 2), varying concentrations of five different inhibitor analogs were added to LPS stimulated THP-1 cells and allowed to incubate overnight. The following day the amount of immunoreactive MIF detected was evaluated by ELISA. Compound 7e inhibited the ability of the antibody to recognize MIF in a dose dependent fashion with an ED50 of 2 μM, similar to the response obtained with analogs compound 7b and compound 7d.
In a further experiment (FIG. 3), the ability of compound 7e to decrease the immunoreactivity of MIF produced by THP-1 cells was determined. THP-1 cells were treated with 10 μg/ml of LPS and 10 μM of compound 7e was added at various times post-LPS stimulation and immunoreactivity monitored with an anti-MIF monoclonal. […] Thus, this experiment measures the activity of compounds or buffer alone controls on MIF detection when the compounds are initially added at various times to cell cultures and then the corresponding conditioned media samples are processed in a time dependent fashion thereafter.

Row | SMILES | EC50
1 | CCOC(=O)c1c(N2CCN(C(=O)c3ccccc3)CC2)c2ccccc2n(C)c1=O [compound 7d] | ~2 µM
2 | Cn1c(=O)c([N+](=O)[O-])c(N2CCN(C(=O)c3ccccc3)CC2)c2ccccc21 [compound 7b] | ~2 µM
